In US9573972B2, “Nurotoxic sterol glycosides” (priority 2008, dated 2017):
Entries after “also recorded” stand apart in the source; their conditions may differ. Marks after values point to notes of the source that are not given here.

Tests used:
male CD-1 mice = assay: Rotarod test, SG-fed mice; type: in vivo, mouse; settings: SG-fed vs control, duration of study
From the text: Five-month old male CD-1 mice (30.1-35.7 g, 7.5 cm-8.8 cm) were purchased from Charles River (Wilmington, Mass.). Adult mice were chosen to mimic the mean age of onset of ALS-PDC (Kurland, L. T. (1988a) Trends Neurosci. 11, 51-4; Kurland, L. T., et al. (1994) Amyotrophic lateral sclerosis-parkinsonism-dementia complex on Guam: epidemiologic and etiological perspectives. 109-131). Thirty mice for the SG study were randomly divided into 2 groups (14 control and 16 experimental animals). All animals were housed singly in a virus-free barrier facility in a room maintained at 22° C. under a 12 hour light/dark cycle. The mice were provided ad libitum access to food and water.
The synthetic SG was mixed with finely ground Purina Chow mouse pellets (Mouse Diet™, Purina) to create the experimental pellets with a SG content of 1000 μg per pellet. Dry materials were blended with a sterile silicon spatula. For every 5 g of standard feed, 2.5 mL of doubly-distilled water (dd)H2O was added and the dough was kneaded and round up into pellets. A single sterol glucoside containing pellet was placed in the feeding tray each morning before the addition of regular mouse chow (ad libitum). All experimental pellets were entirely consumed by the mice each day. […] SG feeding was conducted daily for 15 weeks and mice were behaviorally monitored until sacrifice at 35 weeks (time point 1) or 52 weeks (time point 2). […]

Heat shock protein-70 = assay: Anti-Hsp-70 immunofluorescence; type: in vivo, mouse; settings: for Anti-Hsp-70 (VHLsc), change: ventral horn lumbar spinal cord; for Anti-Hsp-70 (VHLsc), change / Anti-Hsp-70 (VHTsc): SG-fed vs control; for Anti-Hsp-70 (VHTsc): ventral horn thoracic spinal cord
Procedure: Tissue-mounted slides were processed for fluorescence microscopy as follows: Sections were rinsed in coplin jars for 45 minutes at room temperature (RT) in three changes of PBS. Sections were then incubated at RT for 30 minutes in a blocking permeabilization solution made of 5% normal goat serum (NGS), 5% normal rabbit serum (NRS) or 5% BlokHen II (Ayes Labs, Inc., Tigard, Oreg.), 0.05% Triton X-100 and PBS. Subsequently, the blocking solution was tipped off and the slides were rinsed in PBS for 2 minutes. Sections were then incubated overnight in a humidified chamber at 4° C. with a PBS buffered solution that contained 1% NGS or 1% NRS, 1% bovine serum albumin (BSA) and one of the following primary antibodies: (a) rabbit anti-human/mouse ATF-3 (H-90) IgG (polyclonal, 1:500; Santa Cruz Biotechnology, Inc., Santa Cruz, Calif.), (b) anti-activated caspase-3 IgG (monoclonal, 1:250; Chemicon International, Temecula, Calif.) (see FIG. 9), (c) goat antihuman/mouse choline acetyl transferase (ChAT) IgG (polyclonal, 1:100; Chemicon International, Temecula, Calif.) (see FIG. 6), (d) rabbit anti-mouse glial fibrillary acidic protein IgG (polyclonal, 1:250; GeneTex Inc., San Antonio, Tex.) (see FIG. 7), (e) rabbit antihuman/mouse ionized calcium binding adaptor molecule 1 (IBA-1) IgG (polyclonal, 1:500; Wako Pure Chemical Industries, Ltd, Richmond, Va.), (f) mouse anti-human/mouse clone AT8 PHF-1 Tau (monoclonal, 1:200; Pierce Biotechnology Inc., Rockford, Ill.), (g) rabbit anti-human/mouse TAR DNA-binding protein 43 (TDP43) (1:100; ProteinTech Group Inc., Chicago, Ill.) (See FIG. 14), (h) chicken anti-human/mouse β-tubulin 3 (TuJ1 antigen) (polyclonal, 1:100, Ayes Labs, Inc., Tigard, Oreg.), (i) rabbit anti-mouse tyrosine hydroxylase (polyclonal, 1:500, Chemicon International, Temecula, Calif. or polyclonal 1:1000, Affinity BioReagents, Golden, Colo.) (FIG. 10), (j) rabbit anti human/mouse anti-pJunscr73 IgG (polyclonal, 1:200; Chemicon International, Temecula, Calif.), (k) rabbit anti human/mouse anti-HSP-70 IgG (polyclonal, 1:200; Chemicon International, Temecula, Calif.), or (1) rabbit anti human/mouse anti-HSP-25 IgG (polyclonal, 1:100; Chemicon International, Temecula, Calif.). In each experiment, additional slides were incubated with the primary antibody and the secondary antibody omitted or with secondary antibody and primary antibody omitted to test for nonspecific staining. Where appropriate, positive control slides (Alzheimer's disease patient entorhinal cortex, obtained from Drs. Claudia Schwab and Patrick McGeer of the Kinsmen Laboratory, University of British Columbia, Vancouver, BC, Canada) were also processed as above for comparison. Following overnight incubation with the primary antibody, slides were rinsed for 45 minutes at RT in three changes of PBS. Immediately after, the slides were incubated in black chambers that excluded light for 1 hour at RT with the secondary antibody solutions containing 5% NGS or 5% NRS and fluorophore conjugated antibodies: AlexaFluor 568 goat anti-rabbit or rabbit anti-goat IgG (monoclonal, 1:250, absorption: 578 nm, emission 603 nm; Molecular Probes, Eugene, Oreg.), AlexaFluor 546 goat antirabbit or rabbit anti-goat IgG (monoclonal; 1:250, absorption 556 nm, emission 573 nm; Molecular Probes, Eugene, Oreg.) or fluorescein isothiocyanate (FITC) goat anti-rabbit IgG (polyclonal, 1:500, absorption: 494 nm, emission: 518 nm; Sigma, Saint Louis, Mo.). The secondary antibody solution was tipped off and slides were rinsed for 15 minutes in three changes of PBS. Tissue sections were cover-slipped with a 4′6 diamidino-2-phenylindole (DAPI) fluorescent mounting media (Vectashield, absorption: 360 nm, emission: 460 nm, Vector Laboratories, Burlington, ON, Canada) in order to label the nuclei and stored at 4° C. in dark slide boxes to retard bleaching of the fluorescent labels. […]

[1] = SG-fed group over time (35 to 52 wk)

Q: How did the “Rotarod performance (time without fall)” value (male CD-1 mice) turn out when `CC[C@H](/C=C/[C@@H](C)[C@H]1CC[C@H]2[C@@H]3CC=C4C[C@@H](O[C@@H]5O[C@H](CO)[C@@H](O)[C@H](O)[C@H]5O)CC[C@]4(C)[C@H]3CC[C@]12C)C(C)C` [SG, Stigmasterol β-D-Glucopyranoside] was run?
A: decrease in the time without fall; also recorded: trend of diminished performance

Q: And the “Anti-Hsp-70 Lsc over time” value (Heat shock protein-70; [1])?
A: Anti-Hsp-70 Lsc (SG-fed group over time) (ns, p = 0.1223)

Q: What about the “Anti-Hsp-70 Tsc over time” value (Heat shock protein-70; [1]) of the same compound?
A: Anti-Hsp-70 Tsc (SG-fed group over time) (ns, p = 0.8319)

Q: What about the “Anti-Hsp-70 (VHLsc), change” value (Heat shock protein-70; Time-point 1 (35 wk)) of the same compound?
A: Anti-Hsp-70: +1036%***

Q: What about the “Anti-Hsp-70 (VHLsc), change” value (Heat shock protein-70; Time-point 2 (52 wk)) of the same compound?
A: Anti-Hsp-70: +425%*

Q: What about the “Anti-Hsp-70 (VHTsc)” value (Heat shock protein-70; Time-point 1 (35 wk)) of the same compound?
A: Anti-Hsp-70: (ns, p = 0.9697)

Q: And the “Anti-Hsp-70 (VHTsc)” value (Heat shock protein-70; Time-point 2 (52 wk))?
A: Anti-Hsp-70: (ns, p = 0.2793)
